Test results reported in the NIST ThermoML archive (doi:10.1016/j.tca.2014.05.028).

Assay: xn = mol fraction of the nth substance listed
Details: 101 kPa, Liquid; for viscosity: Falling or rolling sphere viscometry; for mass density: Vibrating tube method

CCCC[N+]1(C)CCCC1.[Br-] [1-butyl-1-methylpyrrolidinium bromide] + O
Details	mass density [kg/m3]	viscosity [mPa·s]
298.15 K, x1 = 0.0265	1049.2	1.64
298.15 K, x1 = 0.0561	1093.18	2.906
298.15 K, x1 = 0.0871	1125.96	4.9
298.15 K, x1 = 0.1283	1156.08	8.897
298.15 K, x1 = 0.1645	1174.63	13.84
298.15 K, x1 = 0.2074	1190.42	22.21
298.15 K, x1 = 0.2525	1202.66	36.28
298.15 K, x1 = 0.28	1208.32	44.98
298.15 K, x1 = 0.3012	1212.16	54.7
298.15 K, x1 = 0.3254	1215.99	67.64
298.15 K, x1 = 1	1221.19	–
303.15 K, x1 = 0.0265	1047.05	1.444
303.15 K, x1 = 0.0561	1090.36	2.5
303.15 K, x1 = 0.0871	1122.7	4.146
303.15 K, x1 = 0.1283	1152.59	7.398
303.15 K, x1 = 0.1645	1171.08	11.27
303.15 K, x1 = 0.2074	1186.89	17.69
303.15 K, x1 = 0.2525	1199.19	27.6
303.15 K, x1 = 0.28	1204.89	34.67
303.15 K, x1 = 0.3012	1208.76	41.65
303.15 K, x1 = 0.3254	1212.62	51.14
303.15 K, x1 = 1	1217.27	–
308.15 K, x1 = 0.0265	1044.76	1.24
308.15 K, x1 = 0.0561	1087.45	2.11
308.15 K, x1 = 0.0871	1119.39	3.445
308.15 K, x1 = 0.1283	1149.06	6.041
308.15 K, x1 = 0.1645	1167.5	9.049
308.15 K, x1 = 0.2074	1183.35	13.87
308.15 K, x1 = 0.2525	1195.71	21.22
308.15 K, x1 = 0.28	1201.45	26.45
308.15 K, x1 = 0.3012	1205.35	31.5
308.15 K, x1 = 0.3254	1209.25	38.4
308.15 K, x1 = 1	1213.38	–
313.15 K, x1 = 0.0265	1042.32	1.099
313.15 K, x1 = 0.0561	1084.45	1.833
313.15 K, x1 = 0.0871	1116.03	2.945
313.15 K, x1 = 0.1283	1145.49	5.106
313.15 K, x1 = 0.1645	1163.9	7.53
313.15 K, x1 = 0.2074	1179.78	11.35
313.15 K, x1 = 0.2525	1192.21	17.02
313.15 K, x1 = 0.28	1198	20.97
313.15 K, x1 = 0.3012	1201.93	24.8
313.15 K, x1 = 0.3254	1205.87	30.02
313.15 K, x1 = 1	1209.51	–
318.15 K, x1 = 0.0265	1039.75	0.987
318.15 K, x1 = 0.0561	1081.37	1.621
318.15 K, x1 = 0.0871	1112.61	2.579
318.15 K, x1 = 0.1283	1141.9	4.399
318.15 K, x1 = 0.1645	1160.28	6.4
318.15 K, x1 = 0.2074	1176.2	9.501
318.15 K, x1 = 0.2525	1188.7	14.03
318.15 K, x1 = 0.28	1194.53	17.12
318.15 K, x1 = 0.3012	1198.5	20.1
318.15 K, x1 = 0.3254	1202.48	24.1
318.15 K, x1 = 1	1205.66	–
323.15 K, x1 = 0.0265	1037.05	0.879
323.15 K, x1 = 0.0561	1078.21	1.42
323.15 K, x1 = 0.0871	1109.15	2.234
323.15 K, x1 = 0.1283	1138.27	3.762
323.15 K, x1 = 0.1645	1156.64	5.403
323.15 K, x1 = 0.2074	1172.59	7.915
323.15 K, x1 = 0.2525	1185.17	11.49
323.15 K, x1 = 0.28	1191.05	13.89
323.15 K, x1 = 0.3012	1195.06	16.27
323.15 K, x1 = 0.3254	1199.08	19.34
323.15 K, x1 = 1	1201.84	–
328.15 K, x1 = 0.0265	1034.23	0.782
328.15 K, x1 = 0.0561	1074.97	1.244
328.15 K, x1 = 0.0871	1105.64	1.935
328.15 K, x1 = 0.1283	1134.62	3.23
328.15 K, x1 = 0.1645	1152.97	4.572
328.15 K, x1 = 0.2074	1168.97	6.602
328.15 K, x1 = 0.2525	1181.63	9.462
328.15 K, x1 = 0.28	1187.55	11.38
328.15 K, x1 = 0.3012	1191.6	13.25
328.15 K, x1 = 0.3254	1195.67	15.64
328.15 K, x1 = 1	1198.05	–
333.15 K, x1 = 0.0265	1031.32	0.705
333.15 K, x1 = 0.0561	1071.61	1.1
333.15 K, x1 = 0.0871	1102.07	1.701
333.15 K, x1 = 0.1283	1130.94	2.817
333.15 K, x1 = 0.1645	1149.27	3.923
333.15 K, x1 = 0.2074	1165.34	5.554
333.15 K, x1 = 0.2525	1178.06	7.969
333.15 K, x1 = 0.28	1184.04	9.48
333.15 K, x1 = 0.3012	1188.13	10.97
333.15 K, x1 = 0.3254	1192.25	12.89
333.15 K, x1 = 1	1194.28	–
338.15 K, x1 = 0.0265	1028.4	0.649
338.15 K, x1 = 0.0561	1068.07	0.997
338.15 K, x1 = 0.0871	1098.46	1.536
338.15 K, x1 = 0.1283	1127.23	2.525
338.15 K, x1 = 0.1645	1145.56	3.462
338.15 K, x1 = 0.2074	1161.68	4.89
338.15 K, x1 = 0.2525	1174.49	6.876
338.15 K, x1 = 0.28	1180.52	8.118
338.15 K, x1 = 0.3012	1184.65	9.372
338.15 K, x1 = 0.3254	1188.82	10.94
338.15 K, x1 = 1	1190.53	–
343.15 K, x1 = 0.0265	1024.59	0.586
343.15 K, x1 = 0.0561	1065.42	0.887
343.15 K, x1 = 0.0871	1094.8	1.366
343.15 K, x1 = 0.1283	1123.48	2.229
343.15 K, x1 = 0.1645	1141.82	3.005
343.15 K, x1 = 0.2074	1158	4.186
343.15 K, x1 = 0.2525	1170.9	5.839
343.15 K, x1 = 0.28	1176.99	6.858
343.15 K, x1 = 0.3012	1181.16	7.882
343.15 K, x1 = 0.3254	1185.37	9.135
343.15 K, x1 = 1	1186.8	–
